Measured values as given in patent US6610677B2, “Pyrazole compounds useful as protein kinase inhibitors” (Vertex Pharmaceuticals Incorporated, priority 2000, dated 2003).

Experiments:
GSK-3β (AA 1-420) = biological target: T1, GSK-3β (AA 1-420) (Homo sapiens, UniProt P49841); test: Ki determination for the inhibition of GSK-3 (coupled enzyme system); type: biochemical; settings: 20 μM ATP, 300 μM peptide, 20 nM GSK-3β, 30° C
T1 construct: GSK-3β (AA 1-420)
Procedure, shortened: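 Pyruvate kinase/lactate dehydrogenase-coupled NADH assay with 20 nM GSK-3β (AA 1-420), 20 μM ATP, 300 μM phosphopeptide HSSPHQS(PO3H2)EDEEE in HEPES pH 7.5, 1.5% DMSO, 30 °C. Compound (12 points, 0.002–30 μM) preincubated 10 min before ATP start; Ki derived from 10-min rates versus inhibitor concentration.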

Aurora-2 = biological target: T2, Aurora-2 (Homo sapiens, UniProt O14965); test: Ki determination for the inhibition of Aurora-2 (coupled enzyme assay); type: biochemical; settings: 70 nM Aurora-2, peptide LRRASLG, 30° C
T2 sequence (O14965 1-403): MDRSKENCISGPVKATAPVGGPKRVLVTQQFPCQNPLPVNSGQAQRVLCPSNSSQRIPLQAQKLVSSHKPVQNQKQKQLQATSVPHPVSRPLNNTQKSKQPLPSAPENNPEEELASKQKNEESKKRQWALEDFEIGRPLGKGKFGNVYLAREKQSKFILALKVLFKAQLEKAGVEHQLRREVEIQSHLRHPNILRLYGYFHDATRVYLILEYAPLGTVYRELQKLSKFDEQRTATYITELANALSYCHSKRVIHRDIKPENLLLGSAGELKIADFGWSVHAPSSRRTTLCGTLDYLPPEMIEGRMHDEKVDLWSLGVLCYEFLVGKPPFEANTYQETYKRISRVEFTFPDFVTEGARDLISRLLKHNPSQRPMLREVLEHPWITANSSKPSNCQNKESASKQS
Procedure, shortened: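 Ki came from reaction rates plotted against inhibitor concentration, with rates taken as A340 decrease over 5 min at 30° C. Enzyme (70 nM final) was added after 10 min compound preincubation; stock buffer held […], 800 μM LRRASLG, PK/LDH coupling, pH 7.5.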

T1 sequence (P49841 whole entry, the tested form may be a part): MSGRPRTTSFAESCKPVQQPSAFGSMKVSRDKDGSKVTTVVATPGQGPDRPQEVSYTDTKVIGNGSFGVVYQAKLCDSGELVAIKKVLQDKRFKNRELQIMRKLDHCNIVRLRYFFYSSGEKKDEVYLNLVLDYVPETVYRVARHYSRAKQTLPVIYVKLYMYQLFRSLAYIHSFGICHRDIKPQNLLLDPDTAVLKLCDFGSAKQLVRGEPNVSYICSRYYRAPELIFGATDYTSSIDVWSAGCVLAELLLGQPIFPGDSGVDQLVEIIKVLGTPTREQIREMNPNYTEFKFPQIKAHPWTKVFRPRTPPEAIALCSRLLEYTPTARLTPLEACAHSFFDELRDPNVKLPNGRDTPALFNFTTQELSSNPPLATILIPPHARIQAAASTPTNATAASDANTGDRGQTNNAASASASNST

Row | SMILES | Ki (GSK-3β (AA 1-420)) | Ki (Aurora-2) | melting point
1 | c1ccc(Oc2cccc(-c3nc(Nc4cc(C5CC5)n[nH]4)c4ccccc4n3)c2)cc1 [III-61, (5-Cyclopropyl-2H-pyrazol-3-yl)-[2-(3-phenoxyphenyl)-quinazolin-4-yl]-amine] | < 100 nM | < 100 nM | 193 to 195 °C
2 | c1ccc2c(c1)CN(c1nc(Nc3cc(C4CC4)n[nH]3)c3ccccc3n1)C2 [III-116, (5-Cyclopropyl-2H-pyrazol-3-yl)-[2-(1,3-dihydro-isoindol-2-yl)-quinazolin-4-yl]-amine] | < 100 nM | < 100 nM | 237 °C
3 | Nc1ccc2[nH]nc(Nc3nc(-c4ccccc4C(F)(F)F)nc4ccccc34)c2c1 [II-73, (5-Amino-1H-indazol-3-yl)-[2-(2-trifluoromethyl-phenyl)-quinazolin-4-yl]-amine] | < 100 nM |  | 221 to 223 °C
4 | Cc1cc(Nc2nc(N3CCC(N4CCCC4)CC3)nc3ccccc23)[nH]n1 [III-113] |  | 100 to 1000 nM | 191 °C
5 | Cc1cc(Nc2nc(N3CCC(C)CC3)nc3ccccc23)[nH]n1 [III-106, [2-(4-Methylpiperidin-1-yl)-quinazolin-4-yl]-(5-methyl-2H-pyrazol-3-yl)-amine] | < 100 nM | < 100 nM | 148 to 150 °C
6 | Cc1cc(Nc2cc(-c3ccccc3)nc3ccccc23)n[nH]1 [Compound V-4, (5-Methyl-2H-pyrazol-3-yl)-(2-phenyl-quinolin-4-yl)-amine] | 1000 to 20000 nM | 100 to 1000 nM | 242 to 244 °C
7 | N#Cc1cn[nH]c1Nc1nc(-c2ccccc2)nc2ccccc12 [III-103, (4-Cyano-2H-pyrazol-3-yl)-(2-phenyl-quinazolin-4-yl)-amine] | 1000 to 20000 nM | 1000 to 20000 nM | > 250 °C
8 | Cc1cc(Nc2nc(N3CCNCC3)nc3ccccc23)[nH]n1 [III-105, (5-Methyl-2H-pyrazol-3-yl)-(2-piperazin-1-yl-quinazolin-4-yl)-amine] | 100 to 1000 nM | 100 to 1000 nM | 179 to 181 °C
9 | CC(C)(C)OC(=O)NCCCc1cc(Nc2nc(-c3ccccc3)nc3ccccc23)[nH]n1 [III-80, [5-(3-tert-Butoxycarbonylaminoprop-1-yl)-2H-pyrazol-3-yl]-(2-phenyl-quinazolin-4-yl)-amine] |  | < 100 nM | 199 to 200 °C
10 | CC(C)c1cc(Nc2nc(-c3ccccc3)nc3ccccc23)[nH]n1 [III-67, (5-Isopropyl-2H-pyrazol-3-yl)-(2-phenyl-quinazolin-4-yl)-amine] | < 100 nM | < 100 nM | 218 to 219 °C
11 | Brc1cn[nH]c1Nc1nc(-c2ccccc2)nc2ccccc12 [III-101, (4-Bromo-2H-pyrazol-3-yl)-(2-phenyl-quinazolin-4-yl)-amine] | 1000 to 20000 nM | 1000 to 20000 nM | 189 °C
12 | Cc1cc(Nc2ccnc(-c3ccccc3)n2)n[nH]1 [IV-1, (5-Methyl-2H-pyrazol-3-yl)-(2-phenyl-pyrimidin-4-yl)-amine] |  |  | 245 to 246 °C
13 | Cc1cc(Nc2nc(-c3ccc(C(C)(C)C)cc3)nc3ccccc23)[nH]n1 [III-41, [2-(4-tert-Butylphenyl)-quinazolin-4-yl]-(5-methyl-2H-pyrazol-3-yl)-amine] | 100 to 1000 nM | < 100 nM | > 300 °C
14 | Cc1cc(Nc2nc(-c3ccccc3)nc3cnccc23)n[nH]1 [IV-30, (5-Methyl-2H-pyrazol-3-yl)-(2-phenyl-pyrido[3,4-d]pyrimidin-4-yl)-amine] |  |  | 225 °C
15 | Cc1cc(Nc2nc(-c3cc(Cl)cc(Cl)c3)nc3ccccc23)[nH]n1 [III-36, [2-(3,5-Dichlorophenyl)-quinazolin-4-yl]-(5-methyl-2H-pyrazol-3-yl)-amine] |  |  | 228 °C
16 | Cc1n[nH]c(Nc2nc(-c3ccccc3)nc3ccccc23)c1Br [III-102, (4-Bromo-5-methyl-2H-pyrazol-3-yl)-(2-phenyl-quinazolin-4-yl)-amine] | 100 to 1000 nM | 100 to 1000 nM | 183 to 185 °C
17 | Cc1cc(Nc2n[nH]c3ccccc23)nc(-c2ccccc2C(F)(F)F)n1 [II-19, (1H-Indazol-3-yl)-[6-methyl-2-(2-trifluoromethyl-phenyl)-pyrimidin-4-yl]-amine] | < 100 nM | 1000 to 20000 nM | 235 to 237 °C
18 | CC(C)(C)c1cc(Nc2nc(-c3ccccc3)nc3ccccc23)[nH]n1 [III-68, (5-tert-Butyl-2H-pyrazol-3-yl)-(2-phenyl-quinazolin-4-yl)-amine] | 1000 to 20000 nM | 1000 to 20000 nM | 136 to 137 °C

Row | SMILES | Ki (GSK-3β (AA 1-420)) | Ki (Aurora-2) | melting point
19 | Cc1cc(Nc2nc(N3CCC4(CC3)OCCO4)nc3ccccc23)[nH]n1 [III-112, [2-(1,4-Dioxa-8-aza-spiro[4,5]dec-8-yl)-quinazolin-4-yl]-(5-methyl-2H-pyrazol-3-yl)-amine] | 100 to 1000 nM | < 100 nM | 191 °C
20 | Cc1cc(Nc2nc(N3CCC(CCO)CC3)nc3ccccc23)[nH]n1 [III-110] | 100 to 1000 nM | < 100 nM | 175 °C
21 | Cc1cc(Nc2nc(N3CCC(C)CC3)nc(C)c2N)n[nH]1 [IV-7, [5-Amino-6-methyl-2-(4-methylpiperidin-1-yl)-pyrimidin-4-yl]-(5-methyl-2H-pyrazol-3-yl)-amine] |  |  | 172 to 175 °C
22 | COC(=O)c1cc(Nc2nc(-c3ccccc3)nc3ccccc23)[nH]n1 [III-73, (5-Methoxycarbonyl-2H-pyrazol-3-yl)-(2-phenyl-quinazolin-4-yl)-amine] | < 100 nM | 100 to 1000 nM | 271 to 273 °C
23 | c1ccc2c(c1)CCN2c1nc(Nc2cc(C3CC3)n[nH]2)c2ccccc2n1 [III-119, (5-Cyclopropyl-2H-pyrazol-3-yl)-[2-(2,3-dihydro-indol-1-yl)-quinazolin-4-yl]-amine] | < 100 nM | < 100 nM | 150 to 153 °C
24 | c1ccc(-c2cc(Nc3nc(-c4ccccc4)nc4ccccc34)[nH]n2)cc1 [III-71, (5-Phenyl-2H-pyrazol-3-yl)-(2-phenyl-quinazolin-4-yl)-amine] | 100 to 1000 nM | 100 to 1000 nM | 207 to 209 °C
25 | O=C(O)c1cc(Nc2nc(-c3ccccc3)nc3ccccc23)[nH]n1 [III-72, (5-Carboxy-2H-pyrazol-3-yl)-(2-phenyl-quinazolin-4-yl)-amine] |  |  | 289 to 291 °C (dec.)
26 | CC(C)(C)c1cc(Nc2nc(-c3ccncc3)nc3ccccc23)[nH]n1 [III-69, (5-tert-Butyl-2H-pyrazol-3-yl)-(2-pyridin-4-yl-quinazolin-4-yl)-amine] |  |  | > 300 °C
27 | Cc1nc(-c2ccccc2C(F)(F)F)nc(Nc2n[nH]c3ccc(F)cc23)c1C [II-25, [5,6-Dimethyl-2-(2-trifluoromethyl-phenyl)-pyrimidin-4-yl]-(5-fluoro-1H-indazol-3-yl)-amine] | < 100 nM |  | 160 to 163 °C
28 | CC(=O)Nc1ccc(Sc2cc(Nc3cc(C)[nH]n3)nc(-c3ccccc3)n2)cc1 [IV-3, [6-(4-Acetamidophenylsulfanyl)-2-phenyl-pyrimidin-4-yl]-(5-methyl-2H-pyrazol-3-yl)-amine] |  |  | 235 to 236 °C
29 | Cc1cc(Nc2nc(N3CCOCC3)nc3ccccc23)[nH]n1 [III-104, (5-Methyl-2H-pyrazol-3-yl)-(2-morpholin-4-yl-quinazolin-4-yl)-amine] |  |  | 223 to 224 °C
30 | c1ccc(-c2nc(Nc3cc(C4CC4)[nH]n3)c3ccncc3n2)cc1 [IV-32, (5-Cyclopropyl-2H-pyrazol-3-yl)-(2-phenyl-pyrido[3,4-d]pyrimidin-4-yl)-amine] |  |  | 232 to 233 °C
31 | c1ccc2c(c1)CCCN2c1nc(Nc2cc(C3CC3)n[nH]2)c2ccccc2n1 [III-121, (5-Cyclopropyl-2H-pyrazol-3-yl)-[2-(3,4-dihydro-2H-quinolin-1-yl)-quinazolin-4-yl]-amine] | < 100 nM | < 100 nM | 137 to 145 °C
32 | Cc1cc(Nc2ccnc(N3CCC(C)CC3)n2)n[nH]1 [IV-4, [2-(4-Methylpiperidin-1-yl)-pyrimidin-4-yl]-(5-methyl-2H-pyrazol-3-yl)-amine] |  |  | 215 to 216 °C
33 | Cc1cc(Nc2nc(-c3ccccc3)nc3ncccc23)n[nH]1 [IV-31, (5-Methyl-2H-pyrazol-3-yl)-(2-phenyl-pyrido[2,3-d]pyrimidin-4-yl)-amine] |  |  | 234 °C
34 | Cc1cc(Nc2nc(N3CCC(C)CC3)ncc2[N+](=O)[O-])[nH]n1 [IV-5, [2-(4-Methylpiperidin-1-yl)-5-nitropyrimidin-4-yl]-(5-methyl-2H-pyrazol-3-yl)-amine] |  |  | 185 to 187 °C
35 | Cc1nc(-c2ccccc2C(F)(F)F)nc(Nc2n[nH]c3ccccc23)c1C [II-24, [5,6-Dimethyl-2-(2-trifluoromethyl-phenyl)-pyrimidin-4-yl]-(1H-indazol-3-yl)-amine] | < 100 nM |  | 183 to 186 °C
